Data: US10570080B2, “Perfume ketones” (Givaudan, S.A., priority 2015, dated 2020)
Read-outs that look alike come from different tables or passages of the source.

What was measured:
[1] = target: T1, test peptide Cor1C-420 (Ac-NKKCDLF) (Homo sapiens, UniProt Q9ULV4, I423F); test: Peptide reactivity assay for skin sensitization (similar to DPRA), LC-MS; format: biochemical; conditions: 37° C., 1 mM test chemical, 0.1 mM peptide
T1 construct: purchased Genscript Inc., Piscataway, N.J., USA
Protocol: A second method to determine allergenic potential of chemicals is the DPRA direct peptide assay (OECD TG 442c). It is based on the fact that allergenic chemicals must react with a peptide/protein in order to be immunogenic.
A peptide reactivity assay (A. Natsch, H. Gfeller, Toxicol. Sci 2008, 106, 464-478) was conducted similarly to the DPRA assay: The test chemicals were dissolved to a final concentration of 4 mM in acetonitrile and 250 μl of this solution were added to 2 ml HPLC vials. The test peptide Cor1C-420 with the sequence Ac-NKKCDLF (Genscript Inc., Piscataway, N.J., USA), was dissolved at 0.133 mM in 20 mM phosphate buffer at pH 7.5, and 750 μl of this solution were added to each test vial (final concentrations: 1 mM of test chemical and 0.1 mM of peptide in 25% acetonitrile; ratio 1:10 as in the DPRA assay). The samples were incubated for 1-24 h at 37° C. and at regular intervals they were analysed by LC-MS analysis on a VELOS PRO Mass spectrometer (Thermo […], San Jose, Calif., U.S.A.) operated in the ESl(+) mode. The temperature of the capillary was kept at 275° C. Mass spectra were recorded from 200-2000 amu. […]
Two endpoints are measured with this assay: • a) Depletion of the parent peptide. The mass of the protonated parent peptide is measured and the corresponding peak integrated (% depletion; FIG. 2). […]

[2] = tested on: Luciferase gene under the control of the ARE-element of the gene AKR1C2 (KeratinoSens cell line); test: KeratinoSens assay for skin sensitization: luciferase gene induction; conditions: for Concentration for 1.5-fold gene induction (EC 1.5 in μM): 48 h, n.i. = no induction above threshold of 1.5; for Imax (fold maximal gene induction): 48 h incubation, 0.98 to 2000 μM, vs DMSO controls
Protocol: (§1) Sensitization is measured by the commercially-available and universally-accepted KeratinoSens™ test, which compares the potential skin sensitization risk of chemicals.
(§2) KeratinoSens cells were grown for 24 h in 96-well plates. The medium was then replaced with medium containing the test chemical and the solvent dimethylsulfoxide (DMSO) at a final level of 1%. Each compound was tested at 12 binary dilutions in the range from 0.98 to 2000 μM. Cells were incubated for 48 h with the test agents, and then luciferase activity and cytotoxicity were determined. This full procedure was repeated three times for each chemical. For each chemical in each repetition and at each concentration, the gene induction compared to DMSO controls and the wells with statistically significant induction over the threshold of 1.5 (i.e. 50% enhanced gene activity) were determined. Furthermore, the maximal fold-induction (Imax) and the EC1.5 value (concentration in μM for induction above the threshold) were calculated.
(§3) Compounds were tested using the commercial KeratinoSens™ assay for skin sensitization.

KeratinoSens cells = test: KeratinoSens assay: cytotoxicity / cellular viability; conditions: 48 h
Protocol: KeratinoSens cells were grown for 24 h in 96-well plates. The medium was then replaced with medium containing the test chemical and the solvent dimethylsulfoxide (DMSO) at a final level of 1%. Each compound was tested at 12 binary dilutions in the range from 0.98 to 2000 μM. Cells were incubated for 48 h with the test agents, and then luciferase activity and cytotoxicity were determined. This full procedure was repeated three times for each chemical.
as §3

[3] = tested on: Luciferase gene under the control of the ARE-element of the gene AKR1C2 (KeratinoSens cell line)
Protocol: as §1, §2, §3

| concentration at which the luciferase gene is clearly induced [3] | maximal gene induction over control [3] | SMILES | levels of peptide adducts, fold lower as compared to Damascone delta ([1]; after 1 h) | peptide depletion ([1]; over the 24 h experiment) | sensitization rating by the KeratinoSens assay [2] | induction of luciferase activity above the 1.5-fold threshold ([2]; KeratinoSens) | Concentration for 1.5-fold gene induction (EC 1.5 in μM) ([2]; KeratinoSens) | Imax (fold maximal gene induction) ([2]; KeratinoSens) | Concentration for 50% Cytotoxicity (KeratinoSens cells) | sensitization rating by the KeratinoSens assay [3] |
| --- | --- | --- | --- | --- | --- | --- | --- | --- | --- | --- |
| – | – | C/C=C(\C)C(=O)[C@@H]1[C@@H](C)C=CCC1(C)C (relative stereo) [Example 1, (2E,1′R*,2′S*)-2-Methyl-(2′,6′,6′-trimethylcyclohex-3′-en-1′-yl)but-2-en-1-one] | 3200 fold | no significant peptide depletion | non-sensitizing | did not induce luciferase activity above the 1.5-fold threshold | n.i. | 1.09 fold | 90.3 µM | – |
| 4 µM | 8.7 fold | C/C=C/C(=O)C1C(C)C=CCC1(C)C (stereo not shown) [Damascone delta™, (2E)-1-(2′,6′,6′-trimethylcyclohex-3′-en-1′-yl)but-2-en-1-one] | – | – | – | – | – | – | – | significantly sensitizing compound |
| – | – | CC=C(C)C(=O)C1CCC=CC1C (stereo not drawn) [Example 8, (2E,1′R*,2′R*)-2-Methyl-1-(2′-methylcyclohex-3′-en-1′-yl)but-2-en-1-one] | – | – | – | – | n.i. | 1.35 fold | 316.4 µM | – |
